Test results taken from patent US20040138272A1, “1,4-Substituted cyclohexane derivatives” (priority 2002, published 2004).
“Also recorded” adds a separate entry of the source.

Columns and labels:
[1] = system: retinal ganglion cell axons; experiment: Axon regeneration after optic nerve crush, intravitreal injection; assay type: in vivo, rat; conditions: adult rats, two weeks after crush
Description: To examine the ability of BA-1016 to promote axon regeneration in vivo, the regeneration of retinal ganglion cell axons was examined in the optic nerve after intravitrial injection of BA-1016. In these experiments, BA-1016 was injected at in the vitreous of rats immediately after optic nerve crush that transects all of the retinal ganglion cell (RGC) axons (Lehmann et al, IBID). Two weeks later the animals cholera toxin B subunit was injected in the eye to anterogradelty label the regenerating RGC axons. The next day the animals were killed perfused with saline, and the optic nerves removed for sectioning. Longitudinal sections of the optic nerve were reacted for anti-cholera toxin immunoreactivity to observe the anterogradely labeled fibers.
Rats were anesthetized with isoflorane (2.4%) and the head shaved. […] Retinal ganglion cell axons were labeled by CTB were detected by immunohistochemistry for CTB using a goat anti-choleragenoid (List Biological Labs.), a biotinylated rabbit anti-goat (Vector Labs., Burlingame, Calif.) and DTAF-conjugated streptavidin (Jackson Labs., West Grove, Pa.) as described previously (Lehmann et al IBID)

[2] = system: NG108-15 neuronal cell line; experiment: Rapid bioassay of neurite growth in NG108-15 cells; assay type: cell-based
Description: When neurons are placed on inhibitory substrates in tissue culture, the neurons remain rounded. When an effective Rho kinase inhibitor is added to the neurons, the neurons are able to grow neurites on myelin substrates. The time that it takes for neurons to grow neurites after the addition of a Rho kinase inhibitor is about the same as the time that it takes for neurons to grow neurites if the neurons had been plated on growth permissive substrate such as laminin or polylysine, which time is typically 1 to 2 days in cell culture. An assessment of resulting neurite growth can be scored by visual means. If needed, a quantitative assessment of neurite growth can be performed. This involves measuring after a time such as 1 to 2 days the neurite length a) in control cultures where neurons are plated on myelin substrates and left untreated with Rho kinase inhibitor for such time, b) in positive control cultures, wherein for example neurons are plated on polylysine but left untreated with Rho kinase inhibitor for such time, and c) in cultures analogous to a) and b) that are treated with different concentrations of a Rho kinase inhibitor for such time. […] In this assay, NG108 cells are plated on plastic in the presence or absence of the test substance (a Rho kinase inhibitor). […] The relative efficacy can be assessed by fixing the cultures 5 hours after plating, and counting the number of cells that have grown neurites.
A rapid bioassay is used to determine the effect of a test compounds on the stimulation of neurite growth in vitro. A neuronal cell line, NG108-15 (ATCC HB-12317), is maintained in culture in Dulbecco's minimal essential medium (DMEM) supplemented with 10% fetal bovine serum, Penicillin/Streptomycin and HAT supplement (Gibco/BRL). For the bioassay, the cells are collected by trypsinisation and ressuspended in DMEM supplemented with 5% FBS, Penicillin/Streptomycin, HAT supplement and 0.25 mg/ml cAMP, adjusted to 1.0×10^4 cells/ml. The cells are plated into wells of a 96 well plate at 100 μls (1000 cells)/well. Cells are incubated 4 h at 37° C. and 5% CO2 in presence of small molecules or cethrin at a concentration of 1000 cells per well of a 96-wells plate in a final volume of 100 ul.
After incubation, cells are fixed by adding […] 16% PFA and 5.4 μls 2.5% glutaraldehyde to the media in each well. The wells are stained with cresyl violet 0.05% , 100 μls/well for 15 min. Cells with neurites (length≧one cell body) are counted using an inverted light microscope. The % neurite outgrowth is determined by calculating the number of cells with neurites over the total number of counted cells.

With “(R)-trans-4-(But-3′-en-1′-amino)-N-(4″-pyridyl)cyclohexane Carboxamide Dihydrochloride [BA-1016]” the “distances of axon growth” value [1] was “exceeded 500 um”, the “axon regeneration after optic nerve injury (FIG. 5)” value ([1]; Dihydrochloride) was “can promote axon regeneration; also recorded: RGC axons were observed” and the “efficacy of the stereoisomers compared (FIG. 2)” value ([2]; BA-1016 versus BA-1017) was “better efficacy”. For the same substance, the “neurite outgrowth (FIG. 2)” value ([2]; NG108 cells, 3.1 to 31 μM) was “promote neurite outgrowth”.
